# From patent publication US12459932B2, “KIF18A inhibitors” (AMGEN INC., priority 2018, dated 2025)
# Counter-ions that a name gives are not always drawn.
# Molecular target: T1, Recombinant human KIF18A (1-467 His-tagged) (Homo sapiens, UniProt Q8NI77)
# T1 construct: Recombinant human KIF18A (1-467 His-tagged) protein; His
# Assay: KIF18A Enzyme Assay: microtubule-stimulated ATPase activity (ADP-Glo)
# Format: biochemical
# Conditions: 30 nM KIF18A, 30 μg/mL pig microtubules, ATP 75 μM (Km), ADP-Glo luminescence
# In short: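 Measures microtubule-stimulated ATPase activity as ADP formed, detected by luminescence. Compounds were tested as 2-fold serial dilutions over 22 points. IC50 values came from four-parameter logistic fits.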
# T1 sequence (Q8NI77 1-467): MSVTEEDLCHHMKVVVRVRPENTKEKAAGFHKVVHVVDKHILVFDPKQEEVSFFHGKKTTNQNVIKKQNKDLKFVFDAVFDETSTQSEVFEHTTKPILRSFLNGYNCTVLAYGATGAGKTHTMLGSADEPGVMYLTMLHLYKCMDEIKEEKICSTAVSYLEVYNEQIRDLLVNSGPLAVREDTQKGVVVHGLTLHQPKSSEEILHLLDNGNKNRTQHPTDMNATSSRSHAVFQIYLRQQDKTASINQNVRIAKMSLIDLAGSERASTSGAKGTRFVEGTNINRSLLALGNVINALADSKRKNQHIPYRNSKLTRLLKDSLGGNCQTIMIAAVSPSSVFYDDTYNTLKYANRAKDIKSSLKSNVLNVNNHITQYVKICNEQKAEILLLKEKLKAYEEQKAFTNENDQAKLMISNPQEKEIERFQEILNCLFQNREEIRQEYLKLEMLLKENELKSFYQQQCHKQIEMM
# T1 sequence (P02550 whole entry partner): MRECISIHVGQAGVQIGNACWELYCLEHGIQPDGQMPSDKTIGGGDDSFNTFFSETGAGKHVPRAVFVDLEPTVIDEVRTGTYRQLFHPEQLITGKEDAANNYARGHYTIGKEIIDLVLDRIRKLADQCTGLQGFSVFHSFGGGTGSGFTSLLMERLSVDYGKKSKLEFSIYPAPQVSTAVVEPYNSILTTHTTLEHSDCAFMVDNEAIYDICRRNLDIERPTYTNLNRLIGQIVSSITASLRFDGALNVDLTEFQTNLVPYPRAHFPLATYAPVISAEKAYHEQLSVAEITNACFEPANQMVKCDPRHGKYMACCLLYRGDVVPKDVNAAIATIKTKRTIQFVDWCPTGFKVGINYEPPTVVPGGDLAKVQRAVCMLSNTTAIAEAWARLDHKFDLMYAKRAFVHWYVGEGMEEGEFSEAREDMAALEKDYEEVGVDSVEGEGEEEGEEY
# T1 sequence (P02554 whole entry partner): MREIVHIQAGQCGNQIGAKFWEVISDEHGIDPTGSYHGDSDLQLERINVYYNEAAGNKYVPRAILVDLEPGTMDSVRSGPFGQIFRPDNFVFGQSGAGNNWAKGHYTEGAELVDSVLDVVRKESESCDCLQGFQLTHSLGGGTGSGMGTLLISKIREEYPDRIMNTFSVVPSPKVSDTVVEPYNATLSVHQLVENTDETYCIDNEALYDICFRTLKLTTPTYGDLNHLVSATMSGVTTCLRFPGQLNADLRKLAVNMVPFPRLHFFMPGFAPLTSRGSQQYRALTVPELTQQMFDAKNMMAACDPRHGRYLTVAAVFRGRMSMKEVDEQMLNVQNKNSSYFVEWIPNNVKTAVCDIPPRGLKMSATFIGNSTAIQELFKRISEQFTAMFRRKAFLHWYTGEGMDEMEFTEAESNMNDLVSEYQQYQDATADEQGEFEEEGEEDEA
row,Compound,IC50
1,"CC1(COc2cccc(NC(=O)c3ccc(NS(=O)(=O)CCO)cc3N3CCC4(CC3)CC4)n2)COC1 [Example 16-2, 4-((2-Hydroxyethyl)sulfonamido)-N-(6-((3-methyloxetan-3-yl)methoxy)pyridin-2-yl)-2-(6-azaspiro[2.5]octan-6-yl)benzamide]",50 nM
2,"CN1CC(COc2cccc(NC(=O)c3ccc(NS(=O)(=O)CCO)cc3N3CCC4(CC3)CC4)n2)C1 [Example 16-3, 4-((2-Hydroxyethyl)sulfonamido)-N-(6-((1-methylazetidin-3-yl)methoxy)pyridin-2-yl)-2-(6-azaspiro[2.5]octan-6-yl)benzamide]",63 nM
3,"CC(O)COc1cccc(NC(=O)c2ccc(NS(=O)(=O)CCO)cc2N2CCC3(CC2)CC3)n1 (stereo not shown) [Example 16-4, 4-((2-Hydroxyethyl)sulfonamido)-N-(6-(2-hydroxypropoxy)pyridin-2-yl)-2-(6-azaspiro[2.5]octan-6-yl)benzamide]",115 nM
4,"CC(C)(O)CCOc1cccc(NC(=O)c2ccc(NS(=O)(=O)CCO)cc2N2CCC3(CC2)CC3)n1 [Example 16-5, N-(6-(3-Hydroxy-3-methylbutoxy)pyridin-2-yl)-4-((2-hydroxyethyl)sulfonamido)-2-(6-azaspiro[2.5]octan-6-yl)benzamide]",84 nM
5,"O=C(Nc1cccc(OCCC(O)C(F)(F)F)n1)c1ccc(NS(=O)(=O)CCO)cc1N1CCC2(CC1)CC2 (stereo not shown) [Example 16-6, 4-((2-Hydroxyethyl)sulfonamido)-2-(6-azaspiro[2.5]octan-6-yl)-N-(6-(4,4,4-trifluoro-3-hydroxybutoxy)pyridin-2-yl)benzamide]",81 nM
6,"CC(O)CCOc1cccc(NC(=O)c2ccc(NS(=O)(=O)CCO)cc2N2CCC3(CC2)CC3)n1 (stereo not shown) [Example 16-7, N-(6-(3-Hydroxybutoxy)pyridin-2-yl)-4-((2-hydroxyethyl)sulfonamido)-2-(6-azaspiro[2.5]octan-6-yl)benzamide]",31 nM
7,"O=C(Nc1cccc(OCC(O)C(F)(F)F)n1)c1ccc(NS(=O)(=O)CCO)cc1N1CCC2(CC1)CC2 (stereo not shown) [Example 16-8, 4-((2-Hydroxyethyl)sulfonamido)-2-(6-azaspiro[2.5]octan-6-yl)-N-(6-(3,3,3-trifluoro-2-hydroxypropoxy)pyridin-2-yl)benzamide]",18 nM
8,"O=C(Nc1cccc(OCCC(F)F)n1)c1ccc(NS(=O)(=O)CCO)cc1N1CCC2(CC1)CC2 [Example 16-9, N-(6-(3,3-Difluoropropoxy)pyridin-2-yl)-4-((2-hydroxyethyl)sulfonamido)-2-(6-azaspiro[2.5]octan-6-yl)benzamide]",51 nM
9,"Cc1cc(NC(=O)c2ccc(NS(=O)(=O)CCO)cc2N2CCC3(CC2)CC3)nc(OCCC(F)(F)F)c1 [Example 17, 4-((2-Hydroxyethyl)sulfonamido)-N-(4-methyl-6-(3,3,3-trifluoropropoxy)pyridin-2-yl)-2-(6-azaspiro[2.5]octan-6-yl)benzamide]",24 nM
10,"Cc1cc(NC(=O)c2ccc(NS(=O)(=O)CCO)cc2N2CCC3(CC2)CC3)nc(OCCCC(F)(F)F)c1 [Example 17-3, 4-((2-Hydroxyethyl)sulfonamido)-N-(4-methyl-6-(4,4,4-trifluorobutoxy)pyridin-2-yl)-2-(6-azaspiro[2.5]octan-6-yl)benzamide]",184 nM

# More lines, now with the values ahead:
row,IC50,Compound
1,68 nM,"Cc1cc(NC(=O)c2ccc(NS(=O)(=O)CCO)cc2N2CCC3(CC2)CC3)nc(OCC(O)C(F)(F)F)c1 (stereo not shown) [Example 17-1, 4-((2-Hydroxyethyl)sulfonamido)-N-(4-methyl-6-(3,3,3-trifluoro-2-hydroxypropoxy)pyridin-2-yl)-2-(6-azaspiro[2.5]octan-6-yl)benzamide]"
2,59 nM,"Cc1cc(NC(=O)c2ccc(NS(=O)(=O)CCO)cc2N2CCC3(CC2)CC3)nc(OCC(C)(C)O)c1 [Example 17-2, N-(6-(2-Hydroxy-2-methylpropoxy)-4-methylpyridin-2-yl)-4-((2-hydroxyethyl)sulfonamido)-2-(6-azaspiro[2.5]octan-6-yl)benzamide]"
3,12 nM,"Cc1ccc(NC(=O)c2ccc(NS(=O)(=O)CCO)cc2N2CCC3(CC2)CC3)nc1N1CCOCC1 [Example 18, 4-((2-Hydroxyethyl)sulfonamido)-N-(5-methyl-6-morpholinopyridin-2-yl)-2-(6-azaspiro[2.5]octan-6-yl)benzamide]"
4,87 nM,"C[C@@H]1CN(c2cc(C3CC3)cc(NC(=O)c3ccc(NS(=O)(=O)CCO)cc3N3CCC4(CC3)CC4)n2)CCO1 [Example 19, (R)—N-(4-cyclopropyl-6-(2-methylmorpholino)pyridin-2-yl)-4-((2-hydroxyethyl)sulfonamido)-2-(6-azaspiro[2.5]octan-6-yl)benzamide]"
5,93 nM,"C[C@@H]1CN(c2cc(C(F)(F)F)cc(NC(=O)c3ccc(NS(=O)(=O)CCO)cc3N3CCC4(CC3)CC4)n2)CCO1 [Example 20, (R)-4-((2-Hydroxyethyl)sulfonamido)-N-(6-(2-methylmorpholino)-4-(trifluoromethyl)pyridin-2-yl)-2-(6-azaspiro[2.5]octan-6-yl)benzamide]"
6,25 nM,"N#Cc1ccc(NC(=O)c2ccc(NS(=O)(=O)CCO)cc2N2CCC3(CC2)CC3)nc1N1CCC(F)(F)CC1 [Example 21, N-(5-Cyano-6-(4,4-difluoropiperidin-1-yl)pyridin-2-yl)-4-((2-hydroxyethyl)sulfonamido)-2-(6-azaspiro[2.5]octan-6-yl)benzamide]"
7,41 nM,"Cc1ccc(NC(=O)c2ccc(NS(=O)(=O)CCO)cc2N2CCC3(CC2)CC3)nc1N1CCC(F)(F)CC1 [Example 22, N-(6-(4,4-Difluoropiperidin-1-yl)-5-methylpyridin-2-yl)-4-((2-hydroxyethyl)sulfonamido)-2-(6-azaspiro[2.5]octan-6-yl)benzamide]"
8,41 nM,"Cc1cc(NC(=O)c2ccc(NS(=O)(=O)CCO)cc2N2CCC3(CC2)CC3)nc(C2CCC(F)(F)CC2)c1 [Example 23, N-(6-(4,4-difluorocyclohexyl)-4-methylpyridin-2-yl)-4-((2-hydroxyethyl)sulfonamido)-2-(6-azaspiro[2.5]octan-6-yl)benzamide]"
9,33 nM,"C[C@@H]1CN(c2nc(NC(=O)c3ccc(NS(=O)(=O)CCO)cc3N3CCC4(CC3)CC4)ccc2F)CCO1 [Example 24, (R)-N-(5-Fluoro-6-(2-methylmorpholino)pyridin-2-yl)-4-((2-hydroxyethyl)sulfonamido)-2-(6-azaspiro[2.5]octan-6-yl)benzamide]"
10,41 nM,"C[C@@H]1CN(c2cc(C#N)cc(NC(=O)c3ccc(NS(=O)(=O)CCO)cc3N3CCC4(CC3)CC4)n2)CCO1 [Example 25, (R)-N-(4-Cyano-6-(2-methylmorpholino)pyridin-2-yl)-4-((2-hydroxyethyl)sulfonamido)-2-(6-azaspiro[2.5]octan-6-yl)benzamide]"
11,363 nM,"CC(C)(C)S(=N)(=O)c1cccc(NC(=O)c2ccc(NS(=O)(=O)CCO)cc2N2CCC3(CC2)CC3)n1 (stereo not shown) [Example 26, 4-((2-Hydroxyethyl)sulfonamido)-N-(6-(2-methylpropan-2-ylsulfonimidoyl)pyridin-2-yl)-2-(6-azaspiro[2.5]octan-6-yl)benzamide]"
12,55 nM,"O=C(Nc1cccc(OCCC(F)(F)F)n1)c1ccc(S(=O)(=O)C2CNC2)cc1N1CCC2(CC1)CC2 [Example 31, 4-(Azetidin-3-ylsulfonyl)-2-(6-azaspiro[2.5]octan-6-yl)-N-(6-(3,3,3-trifluoropropoxy)pyridin-2-yl)benzamide trifluoroacetate]"
